In patent US20030114512A1, “Compounds with 5-ht2 and 5-ht1a agonist activity for treating glaucoma” (priority 2002, published 2003):
Like-named read-outs stand apart in the source and are kept apart here.

How the values were obtained:
intraocular pressure [1] = settings: monkey; ascribed to α1A receptor activity; cited from earlier work
intraocular pressure [2] = settings: rabbits; cited from earlier work
5-HT2 receptor = target: T1, 5-HT2 receptor (Rattus norvegicus, UniProt P14842); test: 5-HT2 functional assay: phosphoinositide (PI) turnover; format: cell-based; settings: for Emax: A7r5 cells, relative to 5-HT set at 100%, read-out: Efficacy (Emax, %) 5-HT2 functional; for EC50: [3H]inositol phosphates, A7r5 rat vascular smooth muscle cells, read-out: EC50, nM (SEM) 5-HT2 functional
T1 construct: A7r5 rat vascular smooth muscle cells; endogenous in cells; host or cells: A7r5 rat vascular smooth muscle cells
Experimental: 5-HT2 Functional Assay: Phosphoinositide (PI) Turnover Assay
The relative agonist activity of serotonergic compounds at the 5-HT2 receptor can be determined in vitro using the ability of the compounds to stimulate the production of [^3H]inositol phosphates in [^3H]myo-inositol-labeled A7r5 rat vascular smooth muscle cells by their ability to activate the enzyme phospholipase C. These cells are grown in culture plates, maintained in a humidified atmosphere of 5% CO2 and 95% air and fed semi-weekly with Dulbecco's modified Eagle medium (DMEM) containing 4.5 g/l glucose and supplemented with 2 mM glutamine, 10 μg/ml gentamicin, and 10% fetal bovine serum. For the purpose of conducting the phosphoinositide (PI) turnover experiments, the A7r5 cells are cultured in 24-well plates as previously [J. Pharmacol. Expt. Ther., 286, 411 (1998)]. Confluent cells are exposed for 24-30 hrs to 1.5 μCi [^3H]-myo-inositol (18.3 Ci/mmol) in 0.5 ml of serum-free medium. Cells are then rinsed once with DMEM/F-12 containing 10 mM LiCl prior to incubation with the test agent (or solvent as the control) in 1.0 ml of the same medium for 1 hr at 37° C., after which the medium is aspirated and 1 ml of cold 0.1 M formic acid added to stop the reaction. The chromatographic separation of [^3H]-inositol phosphates ([^3H]-IPs) on an AG-1-X8 column is performed as previously described [J. Pharmacol. Expt. Ther. 286, 411 (1998)] with sequential washes with H2O and 50 mM ammonium formate, followed by elution of the total [^3H]-IPs fraction with 1.2 M ammonium formate containing 0.1 M formic acid. The eluate (4 ml) is collected, mixed with 15 ml scintillation fluid, and the total [^3H]-IPs determined by scintillation counting on a beta counter. Concentration-response data are analyzed by the sigmoidal fit function of the Origin Scientific Graphics software (Microcal Software, Northampton, Mass.) to determine agonist potency (EC50 value) and efficacy (Emax). Serotonin (5-HT) is used as a positive control (standard) agonist compound and the efficacy of test compounds is compared to that of 5-HT (set at 100%). The concentration of the compound needed to stimulate the production of [^3H]-IPs by 50% of the maximum response is termed the EC50 value.

[3] = target: T2, human cloned 5-HT1A receptors (Homo sapiens, UniProt P08908); test: 5-HT1A receptor binding assay ([3H]8-OH-DPAT); settings: [3H]8-OH-DPAT, CHO cell membranes; read-out: IC50, nM (SEM) 5-HT1A receptor binding
T2 construct: purchased NEN (manufactured by Biosignal, Inc., Montreal, Canada); host or cells: CHO cells (membranes)
T2 sequence (P08908 1-422): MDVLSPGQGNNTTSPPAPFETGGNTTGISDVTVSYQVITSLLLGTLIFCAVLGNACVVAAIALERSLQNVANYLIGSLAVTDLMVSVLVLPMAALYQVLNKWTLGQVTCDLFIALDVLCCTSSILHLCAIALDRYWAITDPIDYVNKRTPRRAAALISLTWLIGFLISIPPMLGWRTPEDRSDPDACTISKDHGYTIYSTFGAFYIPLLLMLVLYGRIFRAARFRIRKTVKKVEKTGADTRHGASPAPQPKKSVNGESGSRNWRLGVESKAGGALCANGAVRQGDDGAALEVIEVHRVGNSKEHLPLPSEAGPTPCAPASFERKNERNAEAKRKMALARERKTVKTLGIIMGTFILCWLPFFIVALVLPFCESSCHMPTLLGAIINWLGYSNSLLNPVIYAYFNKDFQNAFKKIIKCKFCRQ
Experimental: 5-HT1A Receptor Binding Assay
5-HT1A binding studies were performed with human cloned receptors expressed in Chinese hamster ovary (CHO) cells using (^3H)8-OH DPAT as the ligand. Membranes from Chinese hamster ovary cells (CHO) expressing cloned 5-HT1A receptors (manufactured for NEN by Biosignal, Inc., Montreal, Canada) were homogenized in approximately 40 volumes of 50 mM Tris pH 7.4 for 5 sec. Drug dilutions were made using a Beckman Biomek 2000 robot (Beckman Instruments, Fullerton, Calif.). Incubations were conducted with membrane prep, test compounds, and 0.25 nM [^3H]8-OH-DPAT (NEN, Boston, Mass.) in the same buffer at 27° C. for 1 h. Assays were terminated by rapid vacuum filtration over Whatman GF/B glass fiber filters pre-soaked in 0.3% polyethyleneimine. Bound radioactivity was measured using liquid scintillation spectrometry. Data were analyzed using non-linear curve fitting programs (Sharif et al., J. Pharmac. Pharmacol. 51: 685-694, 1999).
Ligand binding studies can also be run using membrane preparations from calf and rat brain (local source) and human cortex membranes. Specific brain regions were dissected out, homogenized in 10 volumes of 0.32 M sucrose and centrifuged for 10 min at 700×g. The resulting supernatant was centrifuged at 43,500×g for 10 min and the pellet re-suspended in 50 mM Tris-HCl (pH 7.7, 25° C.) using a 10 sec polytron treatment. Aliquots were stored at −140° C. To remove endogenous serotonin, the preps were incubated at 37° C. for 10 min prior to the experiment. Assay incubations were terminated by rapid filtration over Whatman GF/C filters using a Brandel cell harvester. Ki values were calculated using the Cheng-Prusoff equation (De Vry et al., J. Pharm. Exper. Ther. 284:1082-1094, 1998.)

intraocular pressure [4] = test: IOP response in lasered (hypertensive) eyes of conscious cynomolgus monkeys; format: in vivo, cynomolgus monkey; settings: 300 μg topical ocular
Experimental: IOP Response in Lasered (Hypertensive) Eyes of Conscious Cynomolgus Monkeys
Intraocular pressure (IOP) was determined with an Alcon Pneumatonometer after light corneal anesthesia with 0.1% proparacaine. Eyes were washed with saline after each measurement. After a baseline IOP measurement, test compound was instilled in one 30 μL aliquot to the right eyes only of nine cynomolgus monkeys. Vehicle was instilled in the right eyes of six additional animals. Subsequent IOP measurements were taken at 1, 3, and 6 hours.

T1 sequence (P14842 whole entry): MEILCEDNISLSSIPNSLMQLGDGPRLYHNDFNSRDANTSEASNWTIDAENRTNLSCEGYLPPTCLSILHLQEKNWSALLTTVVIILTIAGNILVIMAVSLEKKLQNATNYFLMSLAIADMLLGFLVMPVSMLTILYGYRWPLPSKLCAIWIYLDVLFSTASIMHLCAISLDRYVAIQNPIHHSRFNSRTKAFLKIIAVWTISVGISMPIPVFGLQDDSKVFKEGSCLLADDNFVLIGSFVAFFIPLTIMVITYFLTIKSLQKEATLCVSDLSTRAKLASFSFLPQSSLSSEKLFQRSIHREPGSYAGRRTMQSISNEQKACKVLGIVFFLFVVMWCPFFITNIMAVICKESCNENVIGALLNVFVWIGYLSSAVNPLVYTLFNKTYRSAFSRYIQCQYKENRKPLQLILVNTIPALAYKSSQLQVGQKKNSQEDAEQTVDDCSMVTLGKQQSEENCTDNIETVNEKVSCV

| SMILES | Effect on IOP (intraocular pressure [1]) | Effect on IOP (intraocular pressure [2]) | Emax (5-HT2 receptor) | EC50 (5-HT2 receptor) | IC50 [3] | Percent IOP Reduction (intraocular pressure [4]; 1 hour after dose) | Percent IOP Reduction (intraocular pressure [4]; 3 hours after dose) | Percent IOP Reduction (intraocular pressure [4]; 6 hours after dose) |
| --- | --- | --- | --- | --- | --- | --- | --- | --- |
| COc1ccccc1N1CCN(CCCNc2c(C)c(=O)n(C)c(=O)n2C)CC1 [5-methylurapidil] | lowers IOP |  |  |  |  |  |  |  |
| CCCN(CCC)C1CCc2cccc(O)c2C1 (centres unmarked) [Compound 8-OH-DPAT, 8-hydroxydipropylaminotetralin] |  | reduces IOP |  |  |  |  |  |  |
| CC(N)Cn1ccc2cc(Cl)ccc21.O=C(O)/C=C/C(=O)O (centres unmarked) [1-(2-aminopropyl) 5-chloroindole fumarate] |  |  | 104% | 1390 nM | 417 nM | 1.2% | 16% | 20.1% |
| COc1ccc2ccn(CC(C)N)c2c1.O=C(O)/C=C/C(=O)O (centres unmarked) [1-(2-aminopropyl) 6-methoxyindole fumarate] |  |  | 88% | 255 nM | 225 nM | 22.5% | 33.1% | 27.5% |
